# Laboratory results: patent US20240254118A1, “PRMT5 INHIBITORS AND USES THEREOF” (Gilead Sciences, Inc., priority 2022, published 2024)
# Experiments:
# [1] = tested on: SDMA signal (PRMT5 inhibition) in HCT116 MTAP-deleted cells; assay: Symmetric di-methyl arginine image-based high content screen assay (SDMA assay), HCT116 MTAP-deleted; format: cell-based; settings: SDMA assay; for EC50: Homo sapiens, HCT-116, 72 h, 3 days of treatment, cell line not given, taken as HCT116 MTAP-deleted, read-out: EC50 (SDMA assay); for EC50 selectivity (SDMA assay): taken as HCT116 WT versus MTAP-deleted
# Method in brief: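 Read-out: per-cell mean SDMA immunofluorescence (Alexa Fluor 488 secondary), cells segmented by DAPI on a high-content imager. Compound exposure in HCT116 MTAP-deleted cells lasted until fixation on Day 3; overnight 4° C primary anti-SDMA antibody staining.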
# [2] = tested on: HCT116 MTAP-deleted cells; assay: Cell viability assay (CellTiter-Glo, 7 days), HCT116 MTAP-deleted; settings: Homo sapiens, HCT-116, 168 h
EC50 [1],EC50 selectivity (SDMA assay) [1],Compound,CC50 [2]
1 to 5 nM,124,"CC(=O)N(C)N(Cc1ccc(C(F)(F)F)nn1)C(=O)c1ccc2nc(N)c3cnn(C)c3c2c1 [Example 61, N′-acetyl-4-amino-N′,1-dimethyl-N-((6-(trifluoromethyl)pyridazin-3-yl)methyl)-1H-pyrazolo[4,3-c]quinoline-8-carbohydrazide]",100 to 1000 nM
< 1 nM,94,"Cn1ncc2c(N)nc3ccc(C(=O)N(Cc4ccc(C(F)(F)F)cn4)N4CCOCC4=O)cc3c21 [Example 62, 4-amino-1-methyl-N-(3-oxomorpholin-4-yl)-N-[[5-(trifluoromethyl)-2-pyridyl]methyl]pyrazolo[4,3-c]quinoline-8-carboxamide]",< 100 nM
1 to 5 nM,70,"Cn1ncc2c(N)nc3cc(Cl)c(C(=O)N(Cc4ccc(C(F)(F)F)cn4)N4CCOCC4=O)cc3c21 [Example 63, 4-amino-7-chloro-1-methyl-N-(3-oxomorpholin-4-yl)-N-[[5-(trifluoromethyl)-2-pyridyl]methyl]pyrazolo[4,3-c]quinoline-8-carboxamide]",< 100 nM
< 1 nM,15,"Cn1ncc2c(N)nc3ccc(C(=O)N(Cc4c(F)cc(C(F)(F)F)cc4F)N4CCCCC4=O)cc3c21 [Example 64, 4-amino-N-[[2,6-difluoro-4-(trifluoromethyl)phenyl]methyl]-1-methyl-N-(2-oxo-1-piperidyl)pyrazolo[4,3-c]quinoline-8-carboxamide]",< 100 nM
< 1 nM,149,"Cn1ncc2c(N)nc3ccc(C(=O)N(Cc4nc5ccccc5s4)N4CCCC4=O)cc3c21 [Example 65, 4-amino-N-(1,3-benzothiazol-2-ylmethyl)-1-methyl-N-(2-oxopyrrolidin-1-yl)pyrazolo[4,3-c]quinoline-8-carboxamide]",< 100 nM
> 5 nM,281,"Cn1ncc2c(N)nc3ccc(C(=O)N(Cc4ccc(C(C)(C)O)nc4)N4CCCCC4=O)cc3c21 [Example 66, 4-amino-N-[[6-(1-hydroxy-1-methyl-ethyl)-3-pyridyl]methyl]-1-methyl-N-(2-oxo-1-piperidyl)pyrazolo[4,3-c]quinoline-8-carboxamide]",100 to 1000 nM
< 1 nM,25,"COc1cc(C(F)(F)F)ccc1CN(C(=O)c1ccc2nc(N)c3cnn(C)c3c2c1)N1CCCCC1=O [Example 67, 4-amino-N-[[2-methoxy-4-(trifluoromethyl)phenyl]methyl]-1-methyl-N-(2-oxo-1-piperidyl)pyrazolo[4,3-c]quinoline-8-carboxamide]",< 100 nM
1 to 5 nM,304,"CC(=O)N(C)N(Cc1ccc(C(F)(F)F)cn1)C(=O)c1ccc2nc(N)c3ccccc3c2c1 [Example 68, N′-acetyl-6-amino-N′-methyl-N-[[5-(trifluoromethyl)-2-pyridyl]methyl]phenanthridine-2-carbohydrazide]",100 to 1000 nM
1 to 5 nM,142,"CC(=O)N(C)N(Cc1ccc(C(F)(F)F)cn1)C(=O)c1ccc2nc(N)c3sncc3c2c1 [Example 69, N′-acetyl-4-amino-N′-methyl-N-[[5-(trifluoromethyl)-2-pyridyl]methyl]isothiazolo[5,4-c]quinoline-8-carbohydrazide]",100 to 1000 nM
1 to 5 nM,11,"CC(=O)N(C)N(Cc1ccc(C(F)(F)F)cn1)C(=O)c1cc2c3c(c(N)nc2cc1F)COC3 [Example 70, N′-acetyl-4-amino-7-fluoro-N′-methyl-N-[[5-(trifluoromethyl)-2-pyridyl]methyl]-1,3-dihydrofuro[3,4-c]quinoline-8-carbohydrazide]",< 100 nM
1 to 5 nM,59,"CC(=O)N(C)N(Cc1ccc(C(F)(F)F)cn1)C(=O)c1ccc2nc(N)c3c(c2c1)CO[C@@H]3C [Example 71, (3R)—N′-acetyl-4-amino-N′,3-dimethyl-N-[[5-(trifluoromethyl)-2-pyridyl]methyl]-1,3-dihydrofuro[3,4-c]quinoline-8-carbohydrazide]",< 100 nM
1 to 5 nM,142,"CC(=O)N(C)N(Cc1ccc(C(F)(F)F)cn1)C(=O)c1ccc2nc(N)c3cnccc3c2c1 [Example 72, N′-acetyl-5-amino-N′-methyl-N-((5-(trifluoromethyl)pyridin-2-yl)methyl)benzo[c][2,7]naphthyridine-9-carbohydrazide]",100 to 1000 nM
> 5 nM,39,"CN(C)N(Cc1ccc(C(F)(F)F)cn1)C(=O)c1ccc2nc(N)c3cscc3c2c1 [Example 73, 4-amino-N′,N′-dimethyl-N-((5-(trifluoromethyl)pyridin-2-yl)methyl)thieno[3,4-c]quinoline-8-carbohydrazide]",100 to 1000 nM
> 5 nM,>71,"CC(c1ccc(C(F)(F)F)cn1)N(C(=O)c1ccc2nc(N)c3cscc3c2c1)N(C)C (stereo not drawn) [Example 74, 4-amino-N′,N′-dimethyl-N-(1-(5-(trifluoromethyl)pyridin-2-yl)ethyl)thieno[3,4-c]quinoline-8-carbohydrazide]",100 to 1000 nM
< 1 nM,68,"CN(C1CC1)N(Cc1ccc(C(F)(F)F)cn1)C(=O)c1ccc2nc(N)c3cnn(C)c3c2c1 [Example 75, 4-amino-N′-cyclopropyl-N′,1-dimethyl-N-((5-(trifluoromethyl)pyridin-2-yl)methyl)-1H-pyrazolo[4,3-c]quinoline-8-carbohydrazide]",< 100 nM
1 to 5 nM,204,"Nc1nc2ccc(C(=O)N(Cc3ccc(C(F)(F)F)cn3)Nc3ncccn3)cc2c2ccccc12 [Example 76, 6-amino-N′-(pyrimidin-2-yl)-N-((5-(trifluoromethyl)pyridin-2-yl)methyl)phenanthridine-2-carbohydrazide]",100 to 1000 nM
< 1 nM,69,"CC(=O)N(C)N(Cc1ccc(OC(F)F)cc1F)C(=O)c1ccc2nc(N)c3cnn(C)c3c2c1 [Example 77, N′-acetyl-4-amino-N-(4-(difluoromethoxy)-2-fluorobenzyl)-N′,1-dimethyl-1H-pyrazolo[4,3-c]quinoline-8-carbohydrazide]",< 100 nM
< 1 nM,19,"Cn1ncc2c(N)nc3cc(F)c(C(=O)N(Cc4ccc(OC(F)F)cc4F)N4CCCC4=O)cc3c21 [Example 78, 4-amino-N-(4-(difluoromethoxy)-2-fluorobenzyl)-7-fluoro-1-methyl-N-(2-oxopyrrolidin-1-yl)-1H-pyrazolo[4,3-c]quinoline-8-carboxamide]",< 100 nM
1 to 5 nM,406,"Cn1c(CN(C(=O)c2ccc3nc(N)c4ccccc4c3c2)N2CCCC2=O)nc2ccccc21 [Example 79, 6-Amino-N-[(1-methylbenzimidazol-2-yl)methyl]-N-(2-oxopyrrolidin-1-yl) phenanthridine-2-carboxamide]",100 to 1000 nM
< 1 nM,164,"Cn1ncc2c(N)nc3ccc(C(=O)N(Cc4nc5ccccc5n4C)N4CCCC4=O)cc3c21 [Example 80, 4-Amino-1-methyl-N-[(1-methylbenzimidazol-2-yl)methyl]-N-(2-oxopyrrolidin-1-yl)pyrazolo[4,3-c]quinoline-8-carboxamide]",< 100 nM
1 to 5 nM,101,"Cn1c(CN(C(=O)c2ccc3nc(N)c4c(c3c2)COC4)N2CCCC2=O)nc2ccccc21 [Example 81, 4-Amino-N-[(1-methylbenzimidazol-2-yl)methyl]-N-(2-oxopyrrolidin-1-yl)-1,3-dihydrofuro[3,4-c]quinoline-8-carboxamide]",< 100 nM
1 to 5 nM,242,"CCn1c(CN(C(=O)c2ccc3nc(N)c4cnn(C)c4c3c2)N2CCCC2=O)nc2ccccc21 [Example 83, 4-Amino-N-[(1-ethylbenzimidazol-2-yl)methyl]-1-methyl-N-(2-oxopyrrolidin-1-yl)pyrazolo[4,3-c]quinoline-8-carboxamide]",100 to 1000 nM
1 to 5 nM,26,"CN1CCN(N(Cc2ccc(C(F)(F)F)cn2)C(=O)c2cc3c(cc2Cl)nc(N)c2cnn(C)c23)C1=O [Example 84, 4-Amino-7-chloro-1-methyl-N-(3-methyl-2-oxo-imidazolidin-1-yl)-N-[[5-(trifluoromethyl)-2-pyridyl]methyl]pyrazolo[4,3-c]quinoline-8-carboxamide]",< 100 nM
< 1 nM,48,"Cn1ncc2c(N)nc3ccc(C(=O)N(Cc4nc5ccc(F)cc5s4)N4CCCC4=O)cc3c21 [Example 85, 4-Amino-N-[(6-fluoro-1,3-benzothiazol-2-yl)methyl]-1-methyl-N-(2-oxopyrrolidin-1-yl)pyrazolo[4,3-c]quinoline-8-carboxamide]",< 100 nM
< 1 nM,92,"CC(=O)N(C)N(Cc1nc2ccc(F)cc2s1)C(=O)c1ccc2nc(N)c3cnn(C)c3c2c1 [Example 86, N′-Acetyl-4-amino-N-[(6-fluoro-1,3-benzothiazol-2-yl)methyl]-N′, 1-dimethyl-pyrazolo[4,3-c]quinoline-8-carbohydrazide]",< 100 nM
